Reference: ChEMBL document CHEMBL1201862, “PubChem BioAssay data set” (2004)
Where “and” joins values, the source holds several entries; their conditions need not be identical. Equal values may be shown once.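 Step 1: Grow cells in 96-well plates. Step 2: Expose to compound for 48 hours at 5 concentrations. Step 3: Interpolate endpoints linearly; if unreached, use highest concentration. Abbreviation: GI50, concentration required for 50% inhibition of growth.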 Calls of active or inactive are those of the source. Cut-off read from the data, not from the text of the source: active = GI50 up to about 1.1 µM and inactive = higher.

Legend:
Test in all cases: NCI-60 cell line screen, 48 h
HOP-62 = system: HOP-62
Hs-578T = system: Hs-578T
NCI-H460 = system: NCI-H460
SK-OV-3 = system: SK-OV-3
OVCAR-4 = system: OVCAR-4
A498 = system: A498
DU-145 = system: DU-145
UACC-62 = system: UACC-62
NCI/ADR-RES = system: NCI/ADR-RES
MOLT-4 = system: MOLT-4
UO-31 = system: UO-31
T47D = system: T47D
SR = system: SR
SK-MEL-2 = system: SK-MEL-2
OVCAR-5 = system: OVCAR-5
SF-539 = system: SF-539
SW-620 = system: SW-620
BT-549 = system: BT-549
786-0 = system: 786-0
HCC 2998 = system: HCC 2998
RXF 393 = system: RXF 393
LOX IMVI = system: LOX IMVI
NCI-H23 = system: NCI-H23
HCT-15 = system: HCT-15
NCI-H522 = system: NCI-H522
RPMI-8226 = system: RPMI-8226
CCRF-CEM = system: CCRF-CEM
NCI-H226 = system: NCI-H226
HL-60 = system: HL-60
K562 = system: K562
UACC-257 = system: UACC-257
Malme-3M = system: Malme-3M
MCF7 = system: MCF7
TK-10 = system: TK-10
SK-MEL-28 = system: SK-MEL-28
M14 = system: M14
OVCAR-3 = system: OVCAR-3
SK-MEL-5 = system: SK-MEL-5
OVCAR-8 = system: OVCAR-8
MDA-N = system: MDA-N
COLO 205 = system: COLO 205
SNB-19 = system: SNB-19
SNB-75 = system: SNB-75
MDA-MB-231 = system: MDA-MB-231
HOP-92 = system: HOP-92
A549 = system: A549
HCT-116 = system: HCT-116
HT-29 = system: HT-29
PC-3 = system: PC-3
SN12C = system: SN12C
ACHN = system: ACHN
KM12 = system: KM12
SF-295 = system: SF-295
U-251 = system: U-251
EKVX = system: EKVX
SF-268 = system: SF-268
CAKI-1 = system: CAKI-1
IGROV-1 = system: IGROV-1
MDA-MB-435 = system: MDA-MB-435

c1ccc(P(CCP(CCP(c2ccccc2)c2ccccc2)c2ccccc2)CCP(c2ccccc2)c2ccccc2)cc1 (configuration not stated)
GI50 (HOP-62): > 10 µM (inactive)
GI50 (Hs-578T): 3.85 µM (inactive)
GI50 (NCI-H460): 1.72 µM (inactive)
GI50 (SK-OV-3): > 10 µM (inactive)
GI50 (OVCAR-4): 7.33 µM (inactive)
GI50 (A498): > 10 µM (inactive) and > 8.65 µM (inactive)
GI50 (DU-145): > 9.16 µM (inactive)
GI50 (UACC-62): 6.55 µM (inactive)
GI50 (NCI/ADR-RES): > 10 µM (inactive) and > 5.58 µM (inactive)
GI50 (MOLT-4): 1.41 µM (inactive)
GI50 (UO-31): > 10 µM (inactive) and > 6.82 µM (inactive)
GI50 (T47D): 2.12 µM (inactive)
GI50 (SR): 1.1 µM (active)
GI50 (SK-MEL-2): 9.44 µM (inactive)
GI50 (OVCAR-5): > 5.45 µM (inactive)
GI50 (SF-539): > 6.25 µM (inactive)
GI50 (SW-620): 5.05 µM (inactive)
GI50 (BT-549): > 10 µM (inactive)
GI50 (786-0): 1.82 µM (inactive)
GI50 (HCC 2998): 2.06 µM (inactive)
GI50 (RXF 393): > 5.6 µM (inactive)
GI50 (LOX IMVI): 1.51 µM (inactive)
GI50 (NCI-H23): > 5.38 µM (inactive)
GI50 (HCT-15): 9.77 µM
GI50 (NCI-H522): 2.69 µM (inactive)
GI50 (RPMI-8226): 1.68 µM (inactive)
GI50 (CCRF-CEM): 1.23 µM (inactive)
GI50 (NCI-H226): > 5.22 µM (inactive)
GI50 (HL-60): 0.63 µM (active)
GI50 (K562): 1.28 µM (inactive)
GI50 (UACC-257): > 10 µM (inactive)
GI50 (Malme-3M): > 10 µM (inactive)
GI50 (MCF7): 1.67 µM (inactive)
GI50 (TK-10): > 10 µM (inactive)

CCc1ccc2nccc(NCCCN(C)C)c2c1[N+](=O)[O-]
GI50 (HOP-62): > 100 µM (inactive)
GI50 (Hs-578T): 30.9 µM (inactive)
GI50 (NCI-H460): > 100 µM (inactive)
GI50 (SK-MEL-28): > 100 µM (inactive)
GI50 (SK-OV-3): > 100 µM (inactive)
GI50 (OVCAR-4): 90.2 µM (inactive)
GI50 (M14): 28.8 µM (inactive)
GI50 (A498): > 100 µM (inactive)
GI50 (DU-145): > 100 µM (inactive)
GI50 (UACC-62): > 100 µM (inactive)
GI50 (NCI/ADR-RES): > 100 µM (inactive)
GI50 (MOLT-4): > 100 µM (inactive)
GI50 (UO-31): 86.3 µM (inactive)
GI50 (OVCAR-3): 41.1 µM (inactive)
GI50 (SK-MEL-5): 44.3 µM (inactive)
GI50 (OVCAR-8): > 100 µM (inactive)
GI50 (T47D): > 100 µM (inactive)
GI50 (MDA-N): 64.7 µM (inactive)
GI50 (COLO 205): 30.7 µM (inactive)
GI50 (SR): > 100 µM (inactive)
GI50 (SK-MEL-2): > 100 µM (inactive)
GI50 (SNB-19): > 100 µM (inactive)
GI50 (OVCAR-5): 33.5 µM (inactive)
GI50 (SNB-75): 50 µM (inactive)
GI50 (MDA-MB-231): 56.1 µM (inactive)
GI50 (SF-539): > 10 µM (inactive)
GI50 (SW-620): > 100 µM (inactive)
GI50 (HOP-92): > 100 µM (inactive)
GI50 (A549): > 100 µM (inactive)
GI50 (HCT-116): 41.2 µM (inactive)
GI50 (HT-29): 33.4 µM (inactive)
GI50 (786-0): > 100 µM (inactive)
GI50 (PC-3): 70 µM (inactive)
GI50 (HCC 2998): > 100 µM (inactive)
GI50 (RXF 393): 71.8 µM (inactive)
GI50 (LOX IMVI): 62.7 µM (inactive)
GI50 (NCI-H23): > 100 µM (inactive)
GI50 (HCT-15): > 10 µM
GI50 (NCI-H522): 74.6 µM (inactive)
GI50 (RPMI-8226): > 100 µM (inactive)
GI50 (SN12C): 60.4 µM (inactive)
GI50 (ACHN): > 100 µM (inactive)
GI50 (KM12): > 100 µM (inactive)
GI50 (CCRF-CEM): > 100 µM (inactive)
GI50 (SF-295): 75.7 µM (inactive)
GI50 (NCI-H226): > 100 µM (inactive)
GI50 (U-251): > 100 µM (inactive)
GI50 (HL-60): > 100 µM (inactive)
GI50 (K562): 42.8 µM (inactive)
GI50 (UACC-257): 32.3 µM (inactive)
GI50 (EKVX): > 100 µM (inactive)
GI50 (Malme-3M): > 100 µM (inactive)
GI50 (SF-268): > 100 µM (inactive)
GI50 (MCF7): 72.9 µM (inactive)
GI50 (CAKI-1): 46.6 µM (inactive)
GI50 (IGROV-1): > 100 µM (inactive)
GI50 (MDA-MB-435): 62.2 µM (inactive)
GI50 (TK-10): > 100 µM (inactive)
